{"source": "paper PMC8410034", "about": "“A variant of ASIC2 mediates sodium retention in nephrotic syndrome” (JCI Insight, 2021)", "key": {"ASIC2a": {"molecular_target": "T1, ASIC2a (Rattus norvegicus, UniProt Q62962)", "T1 construct": "gene Asic2; full-length, expressed alone in X. laevis oocytes (3 ng cRNA, pGH19); homotrimer", "T1 sequence (Q62962 1-512)": "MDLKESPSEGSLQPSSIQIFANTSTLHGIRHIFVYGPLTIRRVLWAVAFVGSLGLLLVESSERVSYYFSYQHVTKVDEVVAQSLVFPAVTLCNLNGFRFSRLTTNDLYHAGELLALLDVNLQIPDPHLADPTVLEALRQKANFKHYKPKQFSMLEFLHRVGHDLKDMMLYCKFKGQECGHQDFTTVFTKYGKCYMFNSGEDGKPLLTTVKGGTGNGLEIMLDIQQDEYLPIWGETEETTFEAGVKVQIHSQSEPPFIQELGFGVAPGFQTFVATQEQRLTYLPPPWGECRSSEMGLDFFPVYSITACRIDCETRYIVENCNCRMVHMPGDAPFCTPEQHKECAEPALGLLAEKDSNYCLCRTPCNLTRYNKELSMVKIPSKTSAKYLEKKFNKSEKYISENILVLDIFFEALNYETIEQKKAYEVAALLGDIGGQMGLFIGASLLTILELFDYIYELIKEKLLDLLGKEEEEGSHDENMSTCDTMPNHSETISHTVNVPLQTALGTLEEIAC", "assay": "two-electrode voltage clamp, X. laevis oocytes", "format": "cell-based", "settings": "acid-induced (pH 4) plateau current, -70 mV"}, "ASIC2a/t-ASIC2b": {"molecular_target": "T2, ASIC2a/t-ASIC2b (Rattus norvegicus, UniProt A0A0G3F2N6+Q62962)", "T2 construct": "gene Asic2; X. laevis oocytes injected with 3 ng Asic2a + 6 ng Asic2b-type cRNA; t-ASIC2b lacks first 71 N-terminal residues; heterotrimer, stoichiometry unknown (mix with 0, 1 or 2 t-ASIC2b)", "T2 sequence (A0A0G3F2N6 1-492)": "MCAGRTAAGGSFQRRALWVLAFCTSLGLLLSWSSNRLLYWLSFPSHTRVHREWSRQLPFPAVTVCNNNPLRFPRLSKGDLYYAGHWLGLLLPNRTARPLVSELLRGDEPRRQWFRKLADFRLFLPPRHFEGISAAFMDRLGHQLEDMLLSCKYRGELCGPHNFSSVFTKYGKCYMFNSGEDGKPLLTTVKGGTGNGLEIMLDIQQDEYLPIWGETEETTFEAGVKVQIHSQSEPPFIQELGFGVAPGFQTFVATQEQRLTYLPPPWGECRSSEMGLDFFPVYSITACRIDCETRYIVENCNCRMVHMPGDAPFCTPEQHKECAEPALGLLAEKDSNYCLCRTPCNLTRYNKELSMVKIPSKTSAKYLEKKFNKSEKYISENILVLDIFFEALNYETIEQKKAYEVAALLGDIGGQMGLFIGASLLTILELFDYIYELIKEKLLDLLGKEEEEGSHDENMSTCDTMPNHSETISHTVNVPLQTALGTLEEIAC", "T2 sequence (Q62962 1-563 isoform Q62962-2)": "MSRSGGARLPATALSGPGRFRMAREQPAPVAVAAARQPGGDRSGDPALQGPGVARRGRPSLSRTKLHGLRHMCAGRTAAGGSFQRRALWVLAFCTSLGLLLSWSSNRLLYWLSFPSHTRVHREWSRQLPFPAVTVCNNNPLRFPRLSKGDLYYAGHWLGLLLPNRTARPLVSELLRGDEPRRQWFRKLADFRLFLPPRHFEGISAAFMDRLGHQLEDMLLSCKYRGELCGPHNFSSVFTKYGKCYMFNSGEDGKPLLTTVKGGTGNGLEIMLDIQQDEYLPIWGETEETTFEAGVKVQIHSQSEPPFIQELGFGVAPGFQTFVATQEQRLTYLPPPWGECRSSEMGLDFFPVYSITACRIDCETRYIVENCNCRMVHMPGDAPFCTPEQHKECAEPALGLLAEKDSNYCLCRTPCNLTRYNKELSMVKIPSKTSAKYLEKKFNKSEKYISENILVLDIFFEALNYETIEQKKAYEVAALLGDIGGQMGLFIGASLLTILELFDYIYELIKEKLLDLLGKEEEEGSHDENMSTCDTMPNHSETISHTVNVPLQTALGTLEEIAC", "assay": "two-electrode voltage clamp, X. laevis oocytes", "format": "cell-based"}}, "data": [{"smiles": "N=C(N)NC(=O)c1nc(Cl)c(N)nc1N", "note": "[amiloride]", "values": [{"measurement": "% inhibition at 100 μM", "setting": "ASIC2a", "value": "did not alter significantly the apparent low sensitivity of ASIC2a to amiloride"}, {"measurement": "IC50", "setting": "ASIC2a/t-ASIC2b", "value": "~50", "unit": "µM"}]}]}
